The text below walks through data of US6262064A, “Octahydrobenzo[f]quinoline-based receptor agonists and antagonists” (priority 1999, dated 2001).

Test [1] has as its target alpha1-adrenergic receptor. As to conditions: for α1 receptor binding affinity: in words.
Experimental: In these assays, the binding reaction was initiated by the addition of varying concentrations of the potential binding composition and a radioligand to an appropriate tissue. The assay was then incubated to allow binding. Binding was then terminated by dilution of the assay with a cold buffer, followed by rapid vacuum filtration onto Whatman GI/C filters that were presoaked in 0.1% polyethylene imine for at least 3 hours. Radioactivity trapped onto the filters was determined and compared to control values in order to ascertain any interactions of test compounds with the binding sites. Binding affinity analyses were performed by Novascreen, Division of the Adheron Corporation, Hanover, Md.
Incubation was conducted in 50 mM TRIS-HCl (pH 7.7) at 25° C. for 60 minutes. […] The final ligand concentration was 0.5 nm.
The next test addresses T1, 5HT2 serotonin receptor (Rattus norvegicus, UniProt P14842).
T1 construct: rat cortical membranes; from tissue; host or cells: rat cortex membranes
Nature of the test: Serotonin (5HT2) binding assay ([3H]Ketanserin). The protocol:
The final ligand concentration was 1.0 nM.

The target of a further test is T2, 5HT1A serotonin receptor (Bos taurus, UniProt F6Q2H9).
T2 construct: bovine hippocampus; from tissue; host or cells: bovine hippocampus
T2 sequence (F6Q2H9 1-422): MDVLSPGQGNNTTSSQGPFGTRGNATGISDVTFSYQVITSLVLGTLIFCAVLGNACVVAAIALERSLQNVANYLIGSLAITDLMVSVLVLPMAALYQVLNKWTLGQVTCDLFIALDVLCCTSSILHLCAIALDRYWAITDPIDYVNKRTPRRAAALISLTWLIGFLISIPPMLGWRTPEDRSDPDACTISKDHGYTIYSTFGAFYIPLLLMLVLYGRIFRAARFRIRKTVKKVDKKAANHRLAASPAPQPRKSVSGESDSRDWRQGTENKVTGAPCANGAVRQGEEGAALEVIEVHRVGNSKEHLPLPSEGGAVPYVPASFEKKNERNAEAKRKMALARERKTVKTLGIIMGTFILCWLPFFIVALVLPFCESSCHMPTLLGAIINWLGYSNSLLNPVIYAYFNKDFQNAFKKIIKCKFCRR
The test is described as follows: Serotonin (5HT1A) binding assay ([3H]-8-OH-DPAT). Details: species or system bovine.

The target in test [2] is alpha2-adrenergic receptor. The test is described as follows: Alpha2-adrenergic (non-selective) binding assay ([3H]RX 781094). Details: species or system rat. As to conditions: for α2 receptor binding affinity: in words.
A further test addresses T3, D2 dopamine receptor (Rattus norvegicus, UniProt P61169).
T3 construct: rat striatal membranes; from tissue; host or cells: rat striatum membranes
Nature of the test: Dopamine D2 binding assay ([3H]Sulpiride). Particulars: for dopamine receptor binding affinity / selectivity for the D2 over the D1 dopamine receptor: in words. The protocol:
The final ligand concentration was 0.5 nM.

A further test addresses T4, D2 receptor (Rattus norvegicus, UniProt P61169).
T4 construct: expressed in transfected cells
Nature of the test: D2 receptor agonist evaluation (membrane binding with and without Gpp(NH)p). The protocol:
To determine the D2, D3 or D4 receptor selectivity, competition binding assays were performed using membranes from fibroblast cell lines transfected with D2444 (rat), D3 (human) or D4 (rat) receptors. All cell lines were maintained in Dulbecco's modified Eagle's media (DMEM) supplemented with 10 % fetal bovine serum at 37° C. with 5% CO2. Transfected cells were maintained in DMEM containing 300 μg/mL of the antibiotic G418 (Gibco).
To determine whether or not compounds of this invention were D2 receptor agonists, a membrane binding assay, utilizing the D2 cell line described in Example 26, was performed in the presence and absence of the non-hydrolyzable guanine nucleotide (GTP analogue) Gpp(NH)p.

Setting [3] is: Table VIII, read-out: Ki of reference compounds, 5HT1A.
The mark [4] stands for this setting: Table V, read-out: Ki of reference compounds, alpha2-adrenergic.
The mark [5] stands for this setting: Table III, rat striatal membranes, read-out: D2 receptor binding affinity Ki.
The mark [6] stands for this setting: Table III, rat cortical membranes, read-out: α2 receptor binding affinity Ki.
Where [7] appears, read: 5-HT1A receptor binding affinity Ki, Table III, bovine hippocampus.
Setting [8] is: read-out: α1 receptor binding affinity Ki, Table III, rat forebrain membranes.

Each structure is given as a SMILES string. Read-outs that look alike come from different tables or passages of the source.

T3 sequence (P61169 whole entry): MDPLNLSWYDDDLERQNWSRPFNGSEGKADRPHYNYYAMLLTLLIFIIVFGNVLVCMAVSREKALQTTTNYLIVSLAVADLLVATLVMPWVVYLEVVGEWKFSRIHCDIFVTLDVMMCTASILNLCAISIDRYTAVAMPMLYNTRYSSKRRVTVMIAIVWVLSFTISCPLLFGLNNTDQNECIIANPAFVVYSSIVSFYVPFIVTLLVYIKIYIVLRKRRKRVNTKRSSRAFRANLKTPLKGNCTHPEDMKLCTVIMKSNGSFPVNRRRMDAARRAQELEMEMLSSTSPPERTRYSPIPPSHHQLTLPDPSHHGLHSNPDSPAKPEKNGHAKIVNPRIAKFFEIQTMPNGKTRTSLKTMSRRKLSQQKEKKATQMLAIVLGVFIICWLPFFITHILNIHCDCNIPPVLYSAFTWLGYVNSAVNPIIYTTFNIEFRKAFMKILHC
T4 sequence (P61169 whole entry): as above
T1 sequence (P14842 whole entry): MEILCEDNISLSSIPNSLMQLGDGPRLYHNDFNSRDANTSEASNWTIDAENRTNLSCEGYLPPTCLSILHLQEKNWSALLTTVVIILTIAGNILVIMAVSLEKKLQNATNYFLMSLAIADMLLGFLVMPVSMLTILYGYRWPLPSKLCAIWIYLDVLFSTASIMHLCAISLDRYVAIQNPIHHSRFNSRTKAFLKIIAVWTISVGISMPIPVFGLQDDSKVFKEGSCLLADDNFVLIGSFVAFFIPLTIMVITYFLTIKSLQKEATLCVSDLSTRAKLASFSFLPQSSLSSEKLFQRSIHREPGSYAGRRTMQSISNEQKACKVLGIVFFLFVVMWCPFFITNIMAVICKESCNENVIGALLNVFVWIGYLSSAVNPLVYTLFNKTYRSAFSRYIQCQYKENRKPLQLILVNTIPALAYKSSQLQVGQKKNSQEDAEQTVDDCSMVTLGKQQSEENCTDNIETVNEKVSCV

As to `COc1cccc(OC)c1OCCNCC1COc2ccccc2O1` (stereo not shown) [WB4101, reference compound], the Ki in test [1] (read-out: Ki of reference compounds, alpha1-adrenergic, Table IV) was 2.6 nM.

On to `Oc1ccc2c(c1O)CC[C@@H]1[C@@H]2CCCN1CCc1cccs1` (relative stereo) [(-)-trans-33], for which the “5HT2 serotonin receptor binding affinity” value at 5HT2 serotonin receptor is on record as “high binding affinities for the 5HT2 serotonin receptor”.

Regarding `CCCN(CCC)C1CCc2cccc(O)c2C1` (stereo not shown) [8-OH-DPAT, reference compound], the Ki on 5HT1A serotonin receptor (Ki characterizing the 5HT1A assay, assay characterization) was 2 nM; at 5HT1A serotonin receptor (setting [3]) it was 1.4 nM.

`Cc1ccc(N(CC2=NCCN2)c2cccc(O)c2)cc1` [Phentolamine, reference compound]: in test [2] (setting [4]), the Ki came to 1.7 nM.

As for `Oc1ccc2c(c1O)CC[C@H]1[C@H]2CCCN1CCc1ccccc1` (single isomer, unassigned) [trans-(+)-9, Trans-(+)7,8-dihydroxy-4-phenethyl-1,2,3,4,4a,5,6, 10b-octahydrobenzo[f]quinoline], the Ki amounted to 2500 nM on D2 dopamine receptor (setting [5]), 550 nM in test [2] (setting [6]), 910 nM on 5HT1A serotonin receptor (setting [7]) and 53 nM in test [1] (setting [8]). Further, in test [1], the “α1 receptor binding affinity” value is recorded as “high binding affinities for the α1 receptor”.

`Oc1cccc2c1CC[C@@H]1[C@@H]2CCCN1CCc1ccccc1` (single isomer, unassigned) [trans-(+)-25]: the Ki at D2 dopamine receptor (setting [5]) was determined as 400 nM; in test [2] (setting [6]), 440 nM; on 5HT1A serotonin receptor (setting [7]), 410 nM; at 5HT2 serotonin receptor (5-HT2 receptor binding affinity Ki), 9.5 nM; in test [1] (setting [8]) it was 5.5 nM. Moreover, at 5HT2 serotonin receptor, the “5HT2 serotonin receptor binding affinity” value is listed as “high binding affinities for the 5HT2 serotonin receptor”. For the same molecule, the “α1 receptor binding affinity” value in test [1] is listed as “high binding affinities for the α1 receptor”.

With `Clc1cccc(Cl)c1N=C1NCCN1` [Clonidine, reference compound], the Ki in test [2] (setting [4]) was determined as 14 nM.

`Oc1cccc2c1CC[C@H]1[C@@H]2CCCN1CCc1ccccc1` (relative stereo) [cis-25, Cis-7-hydroxy-4-phenethyl-1,2,3,4,4a,5,6,10b-octahydrobenzo[f]quinoline]: the Ki at D2 dopamine receptor worked out at 6.6 nM; in test [2] (setting [6]), 0.27 nM; at D2 receptor (Table XV, with Gpp(NH)p, read-out: D2 receptor binding Ki with Gpp(NH)p), 176 ± 213 nM; on D2 receptor (Table XV, without Gpp(NH)p, read-out: D2 receptor binding Ki without Gpp(NH)p), 164 ± 51 nM; in test [1] (setting [8]), 16 nM. Besides, at D2 dopamine receptor, the “dopamine receptor binding affinity” value is given as “good dopamine receptor binding affinities”. Besides, the “selectivity for the D2 over the D1 dopamine receptor” value on D2 dopamine receptor is listed as “highly selective for the D2 dopamine receptor over the D1 dopamine receptor”. Further, the “α2 receptor binding affinity” value in test [2] was “high binding affinities for the α2 receptor”. Moreover, the “Ratio of +:- Gpp(NH)p” value on D2 receptor (Table XV) is reported as 1.07. Also, the D2 agonist/antagonist assessment entry at D2 receptor (in words) is “appear to be an antagonist”. In addition, at D2 receptor (in words), the “effect of GTP on D2 receptor binding” value was “the addition of GTP did not significantly affect receptor binding affinity”. Moreover, the “α1 receptor binding affinity” value in test [1] was “high binding affinities for the α1 receptor”.

As for `Oc1ccc2c(c1O)CC[C@@H]1[C@H]2CCCN1CCc1ccccc1` (single isomer, unassigned) [cis-(-)-9], on D2 dopamine receptor, the Ki came to 54 nM, the “dopamine receptor binding affinity” value is “good dopamine receptor binding affinities” and the “selectivity for the D2 over the D1 dopamine receptor” value is listed as “highly selective for the D2 dopamine receptor over the D1 dopamine receptor”. Further, the Ki in test [2] (setting [6]) worked out at 74 nM. Also, the “α2 receptor binding affinity” value in test [2] was “high binding affinities for the α2 receptor”. Besides, the Ki in test [1] (setting [8]) was determined as 180 nM.

`O=C(c1ccc(F)cc1)C1CCN(CCn2c(=O)[nH]c3ccccc3c2=O)CC1` [Ketanserin, reference compound]: the Ki at 5HT1A serotonin receptor (setting [3]) is greater than 10000 nM.

Broadly, the Ki is a dissociation constant, usually derived from enzyme kinetics or from competition with a known ligand.
